Molecules are shown by their SMILES. pIC50: −log10 of the molar value.

Assay [1] deals with MIA PaCa-2 cells. Nature of the assay: Cell proliferation, Crystal violet assay, 96 h. It counts as cell-based. As to conditions: Homo sapiens.
Assay [2] has as its system MIA PaCa-2 orthotopic pancreatic tumor. Put plainly: Tumor growth inhibition in mice bearing orthotopic MIA PaCa-2 pancreatic cancer. It counts as in vivo. As to conditions: i.v., gemcitabine-equivalent 2 mg/kg, five times. As for the experimental part:
(a) Mean tumor weight (blue bar) of non-, gemcitabine-, Gem-IONP, and ATF-Gem-IONPs treated MIA PaCa-2 bearing mice and individual weight distribution in every group (various symbols). Mice were given by i.v. injection of gemcitabine-equivalent dose of 2 mg/kg five times at 3- or 4-day intervals. At the end of the experimental period, tumor tissues were isolated and weighed. Values represent mean±S.D. for 16 mice. *Statistically significant difference vs. control, p<0.0001. **Statistically significant difference vs. gemcitabine and […] groups, p<0.05. (b) Representative tumor images of each group after dissection.
The tumor growth inhibition effect of ATF-Gem-IONPs was studied using female mice bearing orthotopical pancreatic cancer from an uPAR positive human pancreatic cancer cell line, MIA PaCa-2. NPs were administered five times at twice a week and the dose of ATF-Gem-IONPs was calculated based on gemcitabine-equivalence. Tumors were weighed at the end of the experiment, and average tumor weight was compared between groups (FIG. 4A). All of treated groups inhibited tumor growth compared to non-treated control group. […] Tumor weights agreed well tumor volumes results (FIG. 4B).

Regarding `Nc1ccn([C@@H]2O[C@H](CO)[C@@H](O)C2(F)F)c(=O)n1` [gemcitabine], in assay [1] (gemcitabine equivalent concentration of 1 μM), the viability – broadly, a read-out of living cells in per cent, often relative to untreated cells – at 1 µM came out at 39%. For the same molecule, the pIC50 (usually −log10 of the IC50, conventionally taken in molar units) in assay [1] (gemcitabine-equivalent) is 6.30. For the same molecule, the “tumor growth inhibition compared to non-treated control (tumor weight)” value in assay [2] came to 30%.

These data come from patent publication US20140023715A1, “POLYMER CONJUGATES TARGETING CELLS AND METHODS RELATED THERETO” (EMORY UNIVERSITY, priority 2011, published 2014).
